Where a name gives a salt, the structure may show the parent alone.
Assays:
[1] = tested on: HT-29 tumor cells; assay: Cell growth inhibition assay (CellTiter-Glo), HT-29; conditions: Homo sapiens, HT-29, 72 h, read-out: Activity in HT-29 Tumor Cells;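 note: ATP content read by luminescence as proxy for cell number, growth inhibition versus DMSO vehicle wells, 0.2% DMSO final, nine serial threefold compound dilutions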
[2] = target: B-Raf (Homo sapiens, UniProt P15056); assay: B-Raf Accelerated MEK ATPase assay (BRAMA); assay type: biochemical; conditions: BRAMA enzyme assay, class by pIC50; for IC50: read-out: B-Raf Activity
Protocol: Compounds of the present invention were tested for B-Raf […] inhibitory activity in a B-Raf Accelerated MEK ATPase assay (BRAMA). The BRAMA assay is a high sensitivity assay which measures an intrinsic MEK-mediated ATP hydrolysis uncoupled from downstream ERK phosphorylation by coupling the formation of ADP to NADH oxidation through the enzymes pyruvate kinase and lactate dehydrogenase. When ADP production is initiated by addition of catalytic amounts of an activated RAF enzyme and non-phosphorylated MEK, one observes robust ADP production concomitant with RAF-mediated phosphorylation of MEK. Specific details of the assay are disclosed in: C. Rominger, M. Schaber, E. May. Assay for B-Raf Activity Based on Intrinsic MEK ATPase Activity.

[3] = tested on: SK-MEL-28 tumor cells; assay: Cell growth inhibition assay (CellTiter-Glo), SK-MEL-28; conditions: Homo sapiens, SK-MEL-28, 72 h, read-out: Activity in SK-MEL-28 Tumor Cells;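 note: luminescent total ATP as a proxy for cell number, threefold serial dilutions at 0.2% DMSO, percent growth inhibition versus DMSO vehicle control wells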
[4] = tested on: A375P tumor cells; assay: Cell growth inhibition assay (CellTiter-Glo), A375P; conditions: Homo sapiens, 72 h, read-out: Activity in A375P Tumor Cells;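 note: total ATP luminescence used as proxy for cell number, serial threefold compound dilutions at 0.2% DMSO, growth inhibition expressed versus DMSO vehicle-treated wells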
[5] = tested on: SK-MEL-3 tumor cells; assay: Cell growth inhibition assay (CellTiter-Glo), SK-MEL-3; conditions: Homo sapiens, SK-MEL3, 72 h, read-out: Activity in SK-MEL-3 Tumor Cells;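 note: human melanoma cells grown with compound for 3 days in 0.2% DMSO, total ATP read by luminescence as proxy for cell number, growth inhibition versus DMSO-treated wells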
Protocol: Cell Growth Inhibition Assays Human colon tumor cells (Colo205) were cultured in RPMI (Mediatech 50-020-PB) containing 10% FBS and 1% penicillin-streptomycin. […] Human melanoma cancer cells (A375-F11S) were cultured in RPMI (Mediatech 50-020-PB) containing 10% FBS, 1% sodium pyruvate, and 1% penicillin-streptomycin. Human colon cancer cells (HT-29) were cultured in high glucose DMEM (Mediatech 50-013-PB) containing 10% FBS and 1% penicillin-streptomycin. Human melanoma cancer cells (SK-MEL-3) were cultured in McCoy's 5A (50-025-PB) containing 15% FBS, and 1% penicillin-streptomycin. All cell lines were maintained at 37° C. in a humidified 5% CO2, 95% air incubator.
The next day, compounds were diluted as follows: For 96-well assays, 13.5 μl of compound in DMSO were diluted using nine (9) serial 1:3 dilutions of 4.5 μl in 9 μl of DMSO. Medium (270 μl/well of RPMI with 10% FBS and 1% penicillin-streptomycin) was added to the plates. Aliquots (7 μl) were added to cells in the final assay giving a final DMSO concentration of 0.2%. For 384-well assays, 15 μl of compound in DMSO were diluted using nine (9) serial 1:3 dilutions of 5 μl in 10 μl of DMSO, followed by a further dilution of 5 μl of compound with 95 μl of medium, of which 2 μl are added to cells in the final assay giving a final DMSO concentration of 0.2%. Cells were incubated at 37° C., 5% CO2 for 3 days.
Total ATP was measured (as a surrogate estimate of cell number) using CellTiter-Glo® (Promega G7571) reagent. Briefly, plates were removed from the incubator and allowed to equilibrate to room temperature for 30 minutes. CellTiter-Glo® (25 μl or 55 μl for 384-well or 96-well assays, respectively) reagent was added to each well and plates were shaken on an orbital plate shaker for 2 minutes. Plates were incubated without shaking for a further 30 minutes and read on an LJL Analyst GT reader in luminometer mode with an integration time of 0.5 seconds per well. Percent inhibition of cell growth was calculated relative to DMSO vehicle-treated control wells.

[6] = tested on: Colo205 tumor cells; assay: Cell growth inhibition assay (CellTiter-Glo), Colo205; conditions: Homo sapiens, COLO 205, 72 h, read-out: Activity in Colo205 Tumor Cells;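 note: growth measured via total ATP luminescence (CellTiter-Glo) as a proxy for cell number, inhibition expressed against DMSO-treated control wells, 3-day exposure at 0.2% final DMSO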

Sequence of B-Raf (P15056 whole entry): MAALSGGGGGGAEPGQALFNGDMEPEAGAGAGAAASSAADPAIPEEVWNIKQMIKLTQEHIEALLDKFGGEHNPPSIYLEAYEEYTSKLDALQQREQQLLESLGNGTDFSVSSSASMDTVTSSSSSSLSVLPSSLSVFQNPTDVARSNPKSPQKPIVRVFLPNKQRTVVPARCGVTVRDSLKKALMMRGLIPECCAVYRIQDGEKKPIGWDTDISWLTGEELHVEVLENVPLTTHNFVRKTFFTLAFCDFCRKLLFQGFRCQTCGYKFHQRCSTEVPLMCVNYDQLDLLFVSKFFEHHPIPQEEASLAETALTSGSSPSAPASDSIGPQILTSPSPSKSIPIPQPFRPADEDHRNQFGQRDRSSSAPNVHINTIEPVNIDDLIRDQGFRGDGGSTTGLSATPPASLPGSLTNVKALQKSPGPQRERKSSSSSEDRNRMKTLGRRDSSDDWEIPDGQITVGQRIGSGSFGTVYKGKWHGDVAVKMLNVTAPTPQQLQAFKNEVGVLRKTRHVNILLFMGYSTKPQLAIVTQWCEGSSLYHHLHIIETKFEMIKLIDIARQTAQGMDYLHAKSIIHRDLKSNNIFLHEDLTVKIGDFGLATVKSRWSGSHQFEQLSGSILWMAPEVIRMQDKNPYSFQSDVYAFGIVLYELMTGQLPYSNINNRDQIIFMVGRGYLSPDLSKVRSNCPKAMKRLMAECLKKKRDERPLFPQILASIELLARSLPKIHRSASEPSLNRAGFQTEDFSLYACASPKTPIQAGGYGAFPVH

SMILES	IC50 [1]	IC50 [2]	IC50 [3]	IC50 [4]	IC50 [5]	IC50 [6]	B-Raf Activity [2]
CCNc1nc(-c2cc(OC)cc(OC)c2)c(-c2ccnc(Nc3ccc(N4CCN(C)CC4)c(Cl)c3)n2)s1 [Example 11, 4-[4-[3,5-Bis(methyloxy)phenyl]-2-(ethylamino)-1,3-thiazol-5-yl]-N-[3-chloro-4-(4-methyl-1-piperazinyl)phenyl]-2-pyrimidinamine]	< 500 nM	< 100 nM	< 500 nM	< 500 nM	< 500 nM	< 500 nM	
CCNc1nc(-c2cc(OC)cc(OC)c2)c(-c2ccnc(Nc3ccc(OC4CCN(C(C)=O)CC4)c(F)c3)n2)s1 [Example 12, N-{4-[(1-Acetyl-4-piperidinyl)oxy]-3-fluorophenyl}-4-[4-[3,5-bis(methyloxy)phenyl]-2-(ethylamino)-1,3-thiazol-5-yl]-2-pyrimidinamine]	< 500 nM	< 100 nM	500 to 5000 nM	< 500 nM	< 500 nM	< 500 nM	
CCNc1nc(-c2cc(OC)cc(OC)c2)c(-c2ccnc(Nc3ccc(OCCN4CCOCC4)c(F)c3)n2)s1 [Example 13, 4-[4-[3,5-Bis(methyloxy)phenyl]-2-(ethylamino)-1,3-thiazol-5-yl]-N-(3-fluoro-4-{[2-(4-morpholinyl)ethyl]oxy}phenyl)-2-pyrimidinamine]	< 500 nM	< 100 nM	500 to 5000 nM	500 to 5000 nM	< 500 nM	500 to 5000 nM	
CCNc1nc(-c2cc(C)cc(OC)c2)c(-c2ccnc(Nc3ccc4c(c3)CS(=O)(=O)C4)n2)s1 [Example 14, N-(2,2-Dioxido-1,3-dihydro-2-benzothien-5-yl)-4-{2-(ethylamino)-4-[3-methyl-5-(methyloxy)phenyl]-1,3-thiazol-5-yl}-2-pyrimidinamine]	< 500 nM	< 100 nM	500 to 5000 nM	< 500 nM	< 500 nM	< 500 nM	
COc1cc(OC)cc(-c2nc(NC3CC3)sc2-c2ccnc(Nc3ccc4c(c3)CN(C)CC4)n2)c1 [Example 15, N-{4-[4-[3,5-Bis(methyloxy)phenyl]-2-(cyclopropylamino)-1,3-thiazol-5-yl]-2-pyrimidinyl}-2-methyl-1,2,3,4-tetrahydro-7-isoquinolinamine]	500 to 5000 nM	< 100 nM	500 to 5000 nM	500 to 5000 nM	< 500 nM	500 to 5000 nM	
COc1cc(OC)cc(-c2nc(NC3CC3)sc2-c2ccnc(Nc3ccc(OCCN4CCCC4=O)c(F)c3)n2)c1 [Example 16, 1-(2-{[4-({4-[4-[3,5-Bis(methyloxy)phenyl]-2-(cyclopropylamino)-1,3-thiazol-5-yl]-2-pyrimidinyl}amino)-2-fluorophenyl]oxy}ethyl)-2-pyrrolidinone trifluoroacetate]	< 500 nM	< 100 nM	500 to 5000 nM	500 to 5000 nM	< 500 nM	500 to 5000 nM	
COc1cc(OC)cc(-c2nc(NC3CC3)sc2-c2ccnc(Nc3ccc(OC4CCN(CCS(C)(=O)=O)CC4)c(F)c3)n2)c1 [Example 17, 4-[4-[3,5-Bis(methyloxy)phenyl]-2-(cyclopropylamino)-1,3-thiazol-5-yl]-N-[3-fluoro-4-({1-[2-(methylsulfonyl)ethyl]-4-piperidinyl}oxy)phenyl]-2-pyrimidinamine]	< 500 nM	< 100 nM	< 500 nM	< 500 nM	< 500 nM	< 500 nM	
COCCN1CCN(c2ccc(Nc3nccc(-c4sc(NC5CC5)nc4-c4cc(OC)cc(OC)c4)n3)cn2)CC1 [Example 18, 4-[4-[3,5-Bis(methyloxy)phenyl]-2-(cyclopropylamino)-1,3-thiazol-5-yl]-N-(6-{4-[2-(methyloxy)ethyl]-1-piperazinyl}-3-pyridinyl)-2-pyrimidinamine]	< 500 nM	< 100 nM	< 500 nM	< 500 nM	< 500 nM	< 500 nM	
COc1cc(OC)cc(-c2nc(NC3CC3)sc2-c2ccnc(Nc3ccc(O[C@@H]4CCN(CCF)C4)nc3)n2)c1 [Example 19, 4-[4-[3,5-Bis(methyloxy)phenyl]-2-(cyclopropylamino)-1,3-thiazol-5-yl]-N-(6-{[(3R)-1-(2-fluoroethyl)-3-pyrrolidinyl]oxy}-3-pyridinyl)-2-pyrimidinamine]	< 500 nM	< 100 nM	< 500 nM	< 500 nM	< 500 nM	< 500 nM	
CNc1nc(-c2cc(OC)cc(OC)c2)c(-c2ccnc(Nc3ccc(OCCN4CCCC4)c(Cl)c3)n2)s1 [Example 20, 4-[4-[3,5-Bis(methyloxy)phenyl]-2-(methylamino)-1,3-thiazol-5-yl]-N-(3-chloro-4-{[2-(1-pyrrolidinyl)ethyl]oxy}phenyl)-2-pyrimidinamine]	< 500 nM	< 100 nM	< 500 nM	< 500 nM	< 500 nM	< 500 nM	
CCNc1nc(-c2cc(C)cc(OC)c2)c(-c2ccnc(Nc3ccc(N4CCOCC4)c(F)c3)n2)o1.O=C(O)C(F)(F)F [Example 129]	500 to 5000 nM			500 to 5000 nM	500 to 5000 nM		+++ (at least one pIC50 measurement of greater than 7 against B-Raf)
CCNc1nc(-c2cc(OC)cc(OC)c2)c(-c2ccnc(Nc3ccc(N4CCN5CCCCC5C4)c(F)c3)n2)o1 (stereo not shown) [Example 134]		< 100 nM	500 to 5000 nM			500 to 5000 nM	

Second part, led by results:

IC50 [1]	IC50 [2]	IC50 [3]	IC50 [4]	IC50 [5]	IC50 [6]	SMILES	B-Raf Activity [2]
< 500 nM	< 100 nM	500 to 5000 nM	< 500 nM	< 500 nM	< 500 nM	CCNc1nc(-c2cc(OC)cc(OC)c2)c(-c2ccnc(Nc3ccc(N4CCN(CCS(C)(=O)=O)CC4)nc3)n2)s1 [Example 1, 4-[4-[3,5-Bis(methyloxy)phenyl]-2-(ethylamino)-1,3-thiazol-5-yl]-N-(6-{4-[2-(methylsulfonyl)ethyl]-1-piperazinyl}-3-pyridinyl)-2-pyrimidinamine]	
< 500 nM	< 100 nM	< 500 nM	< 500 nM	< 500 nM	< 500 nM	CCNc1nc(-c2cc(OC)cc(OC)c2)c(-c2ccnc(Nc3ccc(N4CCN(S(C)(=O)=O)CC4)nc3)n2)s1 [Example 2, 4-[4-[3,5-bis(methyloxy)phenyl]-2-(ethylamino)-1,3-thiazol-5-yl]-N-{6-[4-(methylsulfonyl)-1-piperazinyl]-3-pyridinyl}-2-pyrimidinamine]	
< 500 nM	< 100 nM	< 500 nM	< 500 nM	< 500 nM	< 500 nM	CCNc1nc(-c2cc(OC)cc(OC)c2)c(-c2ccnc(Nc3ccc(O[C@H]4CCN(CCS(C)(=O)=O)C4)nc3)n2)s1 [Example 3, 4-[4-[3,5-Bis(methyloxy)phenyl]-2-(ethylamino)-1,3-thiazol-5-yl]-N-[6-({(3S)-1-[2-(methylsulfonyl)ethyl]-3-pyrrolidinyl}oxy)-3-pyridinyl]-2-pyrimidinamine]	
< 500 nM	< 100 nM	500 to 5000 nM	500 to 5000 nM	< 500 nM	500 to 5000 nM	CCNc1nc(-c2cc(OC)cc(OC)c2)c(-c2ccnc(Nc3ccc(N4CCN(CC)CC4)cc3)n2)s1 [Example 5, 4-[4-[3,5-Bis(methyloxy)phenyl]-2-(ethylamino)-1,3-thiazol-5-yl]-N-[4-(4-ethyl-1-piperazinyl)phenyl]-2-pyrimidinamine trifluoroacetate]	
< 500 nM	< 100 nM	500 to 5000 nM	< 500 nM	< 500 nM	< 500 nM	CCNc1nc(-c2cc(OC)cc(OC)c2)c(-c2ccnc(Nc3ccc(N4CCN(CCS(C)(=O)=O)CC4)c(F)c3)n2)s1 [Example 6, 4-[4-[3,5-Bis(methyloxy)phenyl]-2-(ethylamino)-1,3-thiazol-5-yl]-N-(3-fluoro-4-{4-[2-(methylsulfonyl)ethyl]-1-piperazinyl}phenyl)-2-pyrimidinamine trifluoroacetate]	
< 500 nM	< 100 nM	< 500 nM	500 to 5000 nM	< 500 nM	< 500 nM	CCNc1nc(-c2cc(OC)cc(OC)c2)c(-c2ccnc(Nc3ccc(N4CCN(CCF)CC4)c(F)c3)n2)s1 [Example 8, 4-[4-[3,5-Bis(methyloxy)phenyl]-2-(ethylamino)-1,3-thiazol-5-yl]-N-{3-fluoro-4-[4-(2-fluoroethyl)-1-piperazinyl]phenyl}-2-pyrimidinamine]	
< 500 nM	< 100 nM	< 500 nM	500 to 5000 nM	< 500 nM	500 to 5000 nM	CCNc1nc(-c2cc(OC)cc(OC)c2)c(-c2ccnc(Nc3ccc(N4CCS(=O)(=O)CC4)c(F)c3)n2)s1 [Example 9, 4-[4-[3,5-Bis(methyloxy)phenyl]-2-(ethylamino)-1,3-thiazol-5-yl]-N-[4-(1,1-dioxido-4-thiomorpholinyl)-3-fluorophenyl]-2-pyrimidinamine]	

Source: patent US20110190280A1, “Thiazole And Oxazole Kinase Inhibitors” (priority 2007, published 2011)
